Counter-ions that a name gives are not always drawn.
Assays:
[1] = test system: DBA/2 cardiac allografts in B6AF1 recipients; assay: Heterotopic cardiac allograft transplantation, graft survival; type: in vivo, mice
Experimental: Animals. Male DBA/2 (H-2^d), B6AF1 (H-2^k/d,b) and FVB (H-2^q) mice were purchased from Jackson Lab. Inc. (Bar Harbor, Me.). They were maintained in the institutional specific-pathogen free facility, which has an appropriate light cycle with free access to water and chow ad libitum, and used for experiments at age of 6-10 weeks.
Cardiac transplantation. DBA2/J and B6AF1 mice were used as donor and recipient, respectively. Heterotopic heart transplantation was carried out according to the procedure of Corry and Russell (Corry et al., Transplant Proc. 5(1):733-5, 1973). […] Secondary heart grafting into the neck was performed using a cuff technique as described previously (Matsuura et al., Transplantation 51(4):896-8, 1991). Briefly, the heart graft was harvested from either DBA2/J (donor strain) or FVB (third-party strain) mice. The right jugular vein and the right common carotid artery of recipient were dissected, and a cuff (polyethylene or polyimide) was connected to these vessels. The graft aorta and pulmonary artery were sleeved over the cuff on the recipient's common carotid artery and the jugular vein, respectively, and fixed with a ligature. After transplantation, beating of the graft was monitored by daily palpation, and scored +1 to +4 according to the strength of graft contractions. Graft rejection was defined as cessation of beating, and was confirmed by direct inspection followed by histological examination.
Donor and recipient mice were treated either with CoPPIX (5 mg/kg/day), ZnPPIX (5 mg/kg/day) or biliverdin (administered once, twice or three times per day at a dose of 50 μmol/kg/dose). All reagents were administered by intraperitoneal (i.p.) injection. Donor animals were treated for 2 days, starting from 2 days before graft harvest (day-2 and day-1). Treatment of recipient mice was initiated one day before transplantation, and continued until 13 days post-transplant (day-1 to day 13). For the experiments using donor splenocyte infusion (DSI) on day-7 (DSI (D-7)), treatments of recipient animals (either with CoPPIX or ZnPPIX) started from day-8 and were terminated on day 6. Recipients received no further treatment. Spleen cells (2×10^7) isolated from DBA/2J mice as described herein were used for DSI treatment. The cells were injected via the penile vein with 200 μl of 0.9% saline solution.
Statistics. Cardiac graft survival was plotted by the Kaplan-Meier method, and a log-rank test was applied to compare statistical significance. Expression levels of HO-1/α-actin protein are expressed as mean±standard deviation. Other data are expressed as mean±standard error of the mean (mean±SEM). Intergroup statistical analysis was performed by one-way ANOVA, and Fisher's PSLD was used for a post-hoc test. A comparison was considered statistically significant when the p-value was <0.05.

[2] = test system: DSS-colitis; assay: DSS-colitis (acute colitis) mouse model: weight loss, DAI, symptoms, crypt score; type: in vivo, C57BL/6 mice; settings: for mean time to development of loose stool / mean time to bleeding: Kaplan-Meier; for mean time to development of loose stool: non-treated 3 days; for mean time to bleeding: non-treated 5.1 days; for colon histology (cryptal structure): day 7, light microscopy; for crypt score: day 7, non-treatment group 4.8; for disease activity index (DAI): i.p. daily (CoPPIX 5 mg/kg; biliverdin 50 μmol/kg)
Source text: Animals. Pathogen-free male C57BL/6 mice, 4-6 weeks of age (Taconic; C57BL/6×129 svj strain) were used in this example. Mice were kept for one week at 4 mice/cage and fed normal laboratory chow and drinking water ad libitum prior to the experiments. All mice weighed between 22.5 g and 27.7 g at the beginning of the trial. The animal experimentation protocol was reviewed and approved by the Animal Care and Use Committees of the Beth Israel Deaconess Medical Center.
Induction of Colitis. Colitis was induced by feeding mice 5% (wt/v) dextran sodium sulfate (DSS) (MW 40,000; ICN Biomedicals Inc., OH), dissolved in distilled water, for a period of 7 days. The resulting condition was termed “DSS-colitis.” Control animals were fed distilled water ad libitum. The mortality rate in the control group and the CO-treated group was 10% (2/20) and 14% (2/14), respectively. These animals were excluded from the statistical analysis. In the other groups, no mortality occurred during 7 days of 5% DSS treatment.
Experimental Reagents and Treatment Protocol. Cobalt protoporphyrin (CoPPIX), zinc protoporphyrin (ZnPPIX, Porphyrin Products, Logan, Utah) and biliverdin dihydrochloride (ICN Biomedicals Inc., OH) were dissolved in a small amount 0.2 M NaOH, subsequently adjusted to a pH of 7.4 with 1 M HCl, and diluted in 0.9% NaCl. The stock solutions (CoPPIX and ZnPPIX=1 mg/ml, biliverdin=10 mM) were aliquoted and kept at −70° C. until used. Light exposure was limited as much as possible. CoPPIX (5 mg/kg), ZnPPIX (20 mg/kg) and biliverdin (50 μmol/kg) were administered to the mice intraperitoneally (i.p.) 24 hours before induction of DSS-colitis and daily thereafter. Desferoxamine (DFO) was prepared in imidazole buffer (50 mM imidazole, 220 mM NaCl, pH 7.4). DFO was injected subcutaneously (s.c.) twice daily (125 mg/kg) or infused i.p. (130 mg/kg/day; pumping rate 0.5 μl/hour for 8 days) by miniosmotic Alzet™ pumps (Alza Corporation, Palo Alto, Calif.) (Postma et al., Exp. Parasitol. 89(3):323-30 1998). The pumps were installed i.p. 24 hours before induction of colitis. When animals were sacrificed at day 7 of DSS treatment, the pumps were removed and evaluated to determine if DFO application had taken place.
CO gas was administrated exogenously by putting animals in a CO exposure chamber (Otterbein et al., Nat. Med. 6(4):422-8, 2000). Briefly, CO at a concentration of 1% (10,000 parts per million (ppm)) in compressed air was mixed with balanced air (21% oxygen) in a stainless steel mixing cylinder before entering the exposure chamber. CO concentrations were controlled by varying the flow rates of CO in a mixing cylinder before delivery to the chamber. Because the flow rate is primarily determined by the O2 flow, only the CO flow was changed to deliver the final concentration to the exposure chamber. A CO analyzer (Interscan Corporation, Chatsworth, Calif.) was used to measure CO levels continuously in the chamber. Mice were placed in the chamber 24 hours before the induction of the colitis and were kept in the exposure chamber during the whole period of the experiment (total of 8 days). […] Animals were removed daily from the chamber to assess weight and stool.
Evaluation of Symptoms of Colitis. All animals were evaluated clinically on a daily basis. The evaluation of each animal included a measurement of weight, hemoccult positivity and examination of stool for the presence of gross blood and stool consistency. The disease activity index (DAI) was calculated by scoring percent weight loss, intestinal bleeding (no blood; occult blood=hemoccult+; gross blood) and stool consistency (normal stool=well-formed pellets; loose stool=pasty and semiformed stools; diarrhea=liquid stool that stuck to the anus) (Table 1).
The animals were sacrificed, and the whole colon from the colo-cecal junction to the anal verge was removed and gently cleaned of stool. […]

[3] = long-term acceptors after biliverdin, second set transplantation, n=3

Row | Structure (SMILES) | grafts surviving long-term, >100 days ([1]; 5 mg/kg/day i.p., donor from day-2, recipient day-1 to day 13, 2 of 6) | MST of the other 4 rejected grafts ([1]; CoPPIX 5 mg/kg/day i.p.) | allografts surviving over 100 days ([1]; CoPPIX (donor 2 days, recipient day-8 to day 6) plus DSI (D-7), 7/7) | grafts surviving long-term for more than 100 days ([1]; CoPPIX together with DSI (D0), 7 of 8) | mean time to development of loose stool [2] | mean time to bleeding [2] | difference in DAI between CoPP-treated and untreated groups ([2]; day 2) | difference in DAI between CoPP-treated and untreated groups ([2]; day 5 (maximum protection)) | colon histology (cryptal structure) [2] | crypt score [2] | disease activity index (DAI) ([2]; day 7 of DSS) | difference in DAI between CoPP-treated and untreated groups ([2]; toward the end of the 7 days) | grafts surviving for more than 100 days ([1]; biliverdin two (every 12 hours) or three (every 8 hours) times per day, 50 μmol/kg per dose, 4 of 6) | acceptance of secondary heart graft from the donor strain [1, 3] | rejection of third party (FVB) graft [1, 3] | graft median survival time (MST) ([1]; one dose per day i.p. (ZnPPIX 5 mg/kg; biliverdin 50 μmol/kg), untreated 11.5 days) | mean total percent body weight loss ([2]; day 7 of DSS, i.p. daily from 24 hours before DSS (CoPPIX 5 mg/kg; biliverdin 50 μmol/kg))
1 | C=CC1=C(C)c2cc3[n-]c(cc4nc(cc5[n-]c(cc1n2)c(C)c5CCC(=O)[O-])C(CCC(=O)[O-])=C4C)c(C)c3C=C.[Co+2].[H+].[H+] [CoPP, Cobalt protoporphyrin] | 33.3% | 18 days | 100% | 87.5% | 4.6 days | 6.9 days | 0.4 | 1.64 | remaining cryptal structures and intact epithelial surface | 2.6 | 2.8 | 1.04 |  |  |  |  | 
2 | C=CC1=C(C)/C(=C/C2=NC(=C\c3[nH]c(/C=C4\NC(=O)C(C)=C4C=C)c(C)c3CCC(=O)O)/C(CCC(=O)O)=C2C)NC1=O [biliverdin, biliverdin dihydrochloride] |  |  |  |  | 4.4 days | 6.2 days |  |  | preserved cryptal structure | 3 | 3.3 |  | 66.7% | more than 60 days | ≤ 11 days | 20.5 days | 16.5%

Source: US8097585B2, “Methods of treating inflammation by administration of heme oxygenase-1 and products of heme degradation” (priority 2002, dated 2012)
